In patent US9815815B2, “Non-selective kinase inhibitors” (GILEAD SCIENCES, INC., priority 2013, dated 2017):

Tests used:
[1] = tested on: PDGFAA stimulated AKT phosphorylation; experiment: In cell Western (ICW), PDGFAA stimulated AKT phosphorylation in human fetal lung fibroblasts; format: cell-based; conditions: comparison in words
Protocol: In cell Western (ICW). […] HLFs were maintained in subculture at no more than 6 passages in DMEM with 5% FBS and 4 mM Glutamax at 37° C., 5% CO2. HLFs were plated and grown to 70-80% confluence in 96 well plates then serum-starved for 48 hours. […] After washing, the signal was quantified using an Odyssey Infrared Imaging System (LI-COR). Phosphoprotein signal (800 nm) was normalized to total protein signal (700 nm) acquired from each well and experimental duplicates on same plate were averaged and reported.

[2] = tested on: PDGFBB stimulated AKT phosphorylation; experiment: In cell Western (ICW), PDGFBB stimulated AKT phosphorylation in human fetal lung fibroblasts; format: cell-based; conditions: comparison in words
Protocol: In cell Western (ICW). […] HLFs were maintained in subculture at no more than 6 passages in DMEM with 5% FBS and 4 mM Glutamax at 37° C., 5% CO2. HLFs were plated and grown to 70-80% confluence in 96 well plates then serum-starved for 48 hours. […] Antibodies were detected using IRDye 680LT goat anti-mouse IgG and IRDye 800W goat a-rabbit IgG conjugated antibodies. After washing, the signal was quantified using an Odyssey Infrared Imaging System (LI-COR). Phosphoprotein signal (800 nm) was normalized to total protein signal (700 nm) acquired from each well and experimental duplicates on same plate were averaged and reported.

rat MCT model = experiment: PK10453 dose response study in the rat MCT model; format: in vivo
Protocol: Efficacy study in the rat MCT model—PK10453 (Structure 2) dose response study in the rat MCT Model. Male Sprague Dawley rats received MCT 60 mg/kg IPMCT, and after 3 weeks, PK10453 (Structure 2) or vehicle control were administered by inhalation. Four groups were studied: vehicle control (4 min exposure) and three treatment groups of PK10453 (Structure 2) with exposure times 2 min (D2), 4 min (D4), or 8 min (D8) three times a day. These regimens were administered for two weeks. The vehicle consisted of aerosolized 1M tosylic acid neutralized with ammonia vapor as described above. The pH of a solution prepared by dissolving captured aerosol particles in water was measured for every dose and was consistently in the range of 5.5-6.0. At the end of the study, the RV systolic pressure was measured, and the heart chambers dissected and weighed.

rat MCT+PN model = experiment: RV pressure, PV loops, RV hypertrophy and morphometry in the rat MCT+PN model; format: in vivo; conditions: for ESV: PV loop, second part of Table 3
Protocol: Measurement of PV loops. In a separate cohort of animals, the MCT+PN model was developed as described above, and PK10453 (Structure 2) was then administered for 4 or 8 min three times a day to the drug treated group. The vehicle control group underwent 4 min exposures three times a day. Pressure Volume (PV) loops were obtained with an admittance system (Scisense, Inc.) after 14 days of treatment, while rats were under general anesthesia with isoflurane and 100% FiO2. Also, or in the alternative, RV pressures were obtained in each group after 14 days of treatment. In a subset of each group, pressure Volume (PV) loops were obtained with an admittance system (high fidelity catheter FTE1918B, Scisense, Inc.) after 14 days of treatment. After induction of general anesthesia and intubation via tracheostomy, the rats were placed on a pressure controlled ventilator (TOPOVENT). General anesthesia consisted of isoflurane and 100% FiO2 with peak inspiratory pressure set at 18 cm, and PEEP 5 cm H2O. A left thoracotomy was performed with admittance catheter in the RV via the RV outflow tract.
(§1) Histology and morphometric analysis. At the end of the study, the heart and lungs were removed from ventilated animals under general anesthesia. Heparinized saline was infused under pressure through the main pulmonary artery. The right upper lobe was immediately tied off and placed in liquid nitrogen for Western blot and NanoPro 100 ™ assay analysis. The heart was removed, and the RV free wall, interventricular septum and LV free wall dissected and weighed. Buffered formalin (10%) was infused under pressure both through the pulmonary artery and the trachea. Morphometric analysis was performed on H&E stained formalin fixed tissue sectioned at 8 μm. The media area and lumen area of pulmonary arterioles were measured with Image J software by a technician blinded to treatment group. Measurements were made on 20 pulmonary arterioles per section. The ratio of the lumen area to the total media area was determined This ratio normalizes the variation in total pulmonary arteriole area. […]

STAT3 = experiment: NanoPro immunoassay pSTAT3/STAT3 in lung extracts, MCT+PN model; format: in vivo, rat; conditions: D4 and D8 groups compared to vehicle
Description: as §1
(§2) NanoPro Immunoassay™. Relative differences in phosphorylated ERK1/2 and STAT isoforms were measured with a NanoPro100™ immunoassay system (Protein Simple/Cell Biosciences, CA). […]

ERK1/2 = experiment: NanoPro immunoassay pERK1/2 in lung homogenates, MCT+PN model; format: in vivo, rat; conditions: D4 and D8 groups compared to vehicle
Description: as §1, §2

[3] = Systemic blood pressure study in ambulatory MCT treated rats; format: in vivo, rat; conditions: inhalation
Protocol: Systemic blood pressure study. The effect of PK10453 (Structure 2) on systemic BP was studied in ambulatory MCT treated rats with DSI PAC40 transmitters implanted in the descending aorta. […] Blood pressure was recorded before each morning dose.

COc1cc(-c2cncc(N[C@@H](C)c3cccc(NC(=O)c4cncc(C)c4)c3)n2)ccc1O [PK10453, (S)-N-(3-(1-((6-(4-hydroxy-3-methoxyphenyl)pyrazin-2yl)amino)ethyl)phenyl)-5-methylnicotinamide]
IC50 for PDGFAA stimulated phosphorylation of AKT, PK10453 vs imatinib [1]: not significantly different
IC50 for inhibiting PDGFBB stimulated AKT phosphorylation, compared to imatinib [2]: lower IC50 concentrations compared to imatinib
reduction in RVSP compared to the vehicle treated group (rat MCT model; D4): 44%
reduction in RVSP compared to the vehicle treated group (rat MCT model; D8): 54%
RV hypertrophy, ratio (RV+IVS)/LV weight (rat MCT model; inhalation, two weeks, in words): significant reduction
decrease of RV systolic pressure (rat MCT model; rat MCT model, inhalation): 50%
RV systolic pressure (rat MCT+PN model; D8: 8 min 3x/day, 14 days): 43.0±3.0 mm Hg
ESV (rat MCT+PN model; D4, mean): 408.95 µL
ESV (rat MCT+PN model; D8, mean): 488.68 µL
pSTAT3/STAT3 ratio (STAT3): significant reduction
pERK1/ERK1 in lung homogenates (ERK1/2): significant reductions
ppERK1/ERK1 in lung homogenates (ERK1/2): significant reductions
effect on systemic BP, in words [3]: did not have an adverse effect
